In one assay the test system is Mongrel dogs. As to the kind of experiment: Cardiotonic activity (Test Method A): percentage of dp/dt max change in anesthetized mongrel dogs. The following applies: Canis lupus familiaris, iv, injected into the femoral vein, read-out: dp/dt M.C. (percentage of dp/dt max changes). The assay is classed as in vivo. The procedure:
Mongrel dogs of either sex were anesthetized with sodium pentobarbital, 35 mg/kg, i.p. The animals were allowed to breathe spontaneously. The left carotid artery was isolated and a catheter (USCI, #8F) filled with heparinized saline was inserted and advanced into the left ventricle. The catheter was connected to a pressure transducer (Nihonkohden, MPU-0.5A) to measure the left ventricular pressure, from which dp/dt max was derived by analog computing. To measure the systemic blood pressure the left femoral artery was cannulated. The blood pressure pulse was used to trigger a heart rate meter. Another catheter was positioned in the vena cave through right femoral vein for injection of drugs. Systemic blood pressure, left ventricular pressure, dp/dt max and heart rate were recorded simultaneously on a polygram (Nihonkohden, RJG-4008).
Test compound was dissolved in distilled water (0.2 ml/kg) or dimethyl sulfoxide (0.04 ml/kg) and injected into the femoral vein. The parameters after dosing were compared with those during the predosing period.
Test results were represented in terms of percentage of dp/dt max changes (dp/dt M.C.) calculated by following formula, and are shown in table 1. [formula]

For assay [1], the system named is Platelet rich plasma (PRP). As to the kind of experiment: Anti-platelet activity (Test Method B): inhibition of ADP- or collagen-induced aggregation in rabbit platelet rich plasma. The settings on record: Oryctolagus cuniculus, 37° C. The assay is classed as cell-based. How it is done:
Platelet rich plasma (PRP) which contains 6.5-7.5×10^8 platelet/ml was prepared from rabbit blood. To the 200 μl of PRP, 5 μl of calcium chloride (1 mM) and 50 μl of pH 7.4 Tris-acetate solution (5 mM) containing 120 mM NaCl and test compound were added successively, and then stirred for 2 min. at 37° C. To the solution 5 μl of adenosine diphosphate (ADP) (2.5 μM) or collagen (2.5 μg/ml) was added as an agregation inducer. Aggregation was measured by using an aggregometer (NKK HEMA TRACER 1).

For another assay, the system named is male Wistar rats (DOCA). As to the kind of experiment: Antihypertensive activity (Test Method C): maximum decrease of blood pressure in DOCA-treated uninephrectomized rats. The assay is classed as in vivo. The following applies: 1.0 mg/kg, oral; DOCA hypertensive rats, mean arterial pressure. How it is done:
Antihypertensive activity
Five-week old male Wistar rats were uninephrectomized under anesthesia. Deoxycorticosterone acetate (DOCA) (30 mg/kg), suspended in peanut oil, was injected subcutaneously twice a week and 1% saline was substituted for the drinking water. Animals with mean blood pressure 150-200 mmHg were used for experiment between 5 and 7 weeks after surgery.
The test compounds were administered orally. Blood pressure was measured at the femoral artery by means of a pressure transducer and recorded as electrically integrated values of mean arterial pressure.

Read-outs that look alike come from different tables or passages of the source.

On to `COc1ccc(-c2cc(=Nc3c(C)cc(C)cc3C)n(C)c(Cl)n2)cc1OC` [Example 1, 2-chloro-3,4-dihydro-6-(3,4-dimethoxyphenyl)-3-methyl-4-(2,4,6-trimethylphenylimino)pyrimidine], for which the change in vivo at 0.1 mg/kg with Mongrel dogs was 45%. Same read-out and setting: in the case of `COc1ccc(-c2cc(=Nc3c(C)cc(C)cc3C)n(C)c3nncn23)cc1OC` [Example 11, 7,8-dihydro-5-(3,4-dimethoxyphenyl)-8-methyl-7-(2,4,6-trimethylphenylimino)-1,2,4-triazolo[4,3-a]pyrimidine] it was 60%. Regarding `COc1ccc(-c2cc(=Nc3c(C)cc(C)cc3C)n(C)cn2)cc1OC` [Example 2, 3,4-dihydro-6-(3,4-dimethoxyphenyl)-3-methyl-4-(2,4,6-trimethylphenylimino)pyrimidine], the change in vivo at 0.1 mg/kg with Mongrel dogs was found to be 114%. The IC50 in assay [1] (aggregation inducer ADP (2.5 μM), pH 7.4, read-out: ID50, ADP) is 260 nM; in assay [1] (aggregation inducer collagen (2.5 μg/ml), pH 7.4, read-out: ID50, Collagen), 360 nM. In addition, in the assay on male Wistar rats (DOCA), the “Effect Max (mean ratio of maximum decrease of blood pressure)” value was 39.0%. Regarding `COc1ccc(-c2cc(=Nc3c(C)cc(C)cc3C)n(C)c(C)n2)cc1OC` [Example 18, 3,4-dihydro-6-(3,4-dimethoxyphenyl)-2,3-dimethyl-4-(2,4,6-trimethylphenylimino)pyrimidine], the change in vivo at 0.1 mg/kg in the assay on Mongrel dogs is 72%. Turning to `COc1ccc(-c2cc(=Nc3c(C)cc(C)cc3C)n(C)c3nnnn23)cc1OC` [Example 12, 4,5-dihydro-7-(3,4-dimethoxyphenyl)-4-methyl-5-(2,4,6-trimethylphenylimino)tetrazolo[1,5-a]pyrimidine], the change in vivo at 0.1 mg/kg in the assay on Mongrel dogs came out at 152%. Regarding `CCn1c(C)nc(-c2ccc(OC)c(OC)c2)cc1=Nc1c(C)cc(C)cc1C` [Examples (17-12) and (19-12), 3,4-Dihydro-6-(3,4-dimethoxyphenyl)-3-ethyl-2-methyl-4-(2,4,6-trimethylphenylimino)pyrimidine], the change in vivo at 0.1 mg/kg with Mongrel dogs amounted to 87%.

As to `COc1ccc(-c2cc(=Nc3c(C)cc(C)cc3C)n(C)c(N(C)Cc3ccccc3)n2)cc1OC` [Example 3, 3,4-dihydro-6-(3,4-dimethoxyphenyl)-3-methyl-2-(N-methyl-N-benzylamino)-4-(2,4,6-trimethylphenylimino)pyrimidine], the change in vivo at 0.1 mg/kg with Mongrel dogs is 29%. Still for that read-out and setting: next, `COc1ccc(-c2cc(N(C)c3c(C)cc(C)cc3C)nc(C)n2)cc1OC` [Examples (17-6) and 20, 6-(3,4-dimethoxyphenyl)-2-methyl-4-[N-methyl-N-(2,4,6-trimethylphenyl)amino]pyrimidine]: 76%; `Nc1cc(-c2ccncc2)c[nH]c1=O` [Amrinone, 3-Amino-5-(4-pyridyl)-2(1H)-pyridinone, reference compound]: 9%.

These data come from US4725600A, “Pyrimidine compounds having activity as a cardiotonic anti-hypertensive cerebrovascular vasodilator and anti-platelet aggregation agent” (Fujisawa Pharmaceutical Co., Ltd., priority 1984, dated 1988).
